Data: patent publication US20050244819A1, “Assay system for screening protease inhibitors” (priority 2004, published 2005)

Experiments:
D30N HIV protease = molecular target: T1, D30N HIV protease (Human immunodeficiency virus type 1 group M subtype B, UniProt P12497, D518N); experiment: cell-based; set-up: species or system HIV-1
T1 construct: used to replace the wild-type HIV protease domain in the two-cistron expression construct; Met-Gly (my reading of primer TF-F) + native transframe region (56 aa directly upstream of the protease in Gag-Pol) (N); Lys-Glu-Glu (my translation of primer PR-R: Shine-Dalgarno in frame before the stop codon) (C); expressed in transfected cells; host or cells: E. coli bearing plasmid pTF-PR^D30N
Experimental: (§1) Cell-Based β-galactosidase Activity Assay. Cell-based β-galactosidase activity assays were performed basically as described in Example 4. E. coli cells bearing each of the expression plasmids were grown as described, except that after incubation at 37° C. for 2 h to an OD630 of 0.6, the cells were transferred in triplicate sets to the wells of 96-well microplates. The cells were subjected to simultaneous induction for recombinant protein expression as well as drug treatment with HIV protease inhibitors at the indicated concentrations in 2% DMSO. For the screening of the compound library generated by the amide-forming reaction (see Example 5), DMF was used instead of DMSO. […] After the OD630 of the cells was determined by using an Ultramark microplate imaging system (Bio-Rad, Hercules, Calif.), ONPG was added at a final concentration of 200 μM to start the enzymatic reactions at 37° C. Changes in the OD415, indicating the production of ortho-nitrophenol, were continuously monitored with the Ultramark microplate imaging system. […] The β-galactosidase activity was determined as the number of micromoles of ortho-nitrophenol produced per minute at 37° C. […]

[1] = molecular target: T2, HIV protease precursor TF-PR^WT (Human immunodeficiency virus type 1 group M subtype B, UniProt P12497, L434F); experiment: cell-based; set-up: species or system HIV-1
T2 construct: Met-Gly (my reading of primer TF-F) + native transframe region (TFP 8 aa + p6pol 48 aa = 56 aa directly upstream of the protease in Gag-Pol); removed by autoprocessing (N, cleaved yes); expressed in transfected cells; host or cells: E. coli DH5α bearing plasmid pTF-PR^WT (pBAD, arabinose-induced)
Experimental: (§2) Stock solutions of the FDA-approved HIV protease inhibitors were prepared by solubilizing the drugs in 100% dimethyl sulfoxide (DMSO) at 100 mM. A single colony of the cells bearing the respective plasmid, namely pTF-PR^WT or pTF-PR^mutant, was inoculated into 2 ml of Luria-Bertani (LB) medium with 100 μg of ampicillin/ml and grown overnight at 37° C. The culture was diluted 100-fold with fresh Luria-Bertani medium containing 100 μg of ampicillin/ml and incubated at 37° C. for 2 h until the optical density at 630 nm (OD630) of the cells reached 0.6. The cells were then induced for protein expression with 0.2% arabinose and simultaneously treated with either HIV protease inhibitors dissolved in 2% DMSO at the indicated concentrations or 2% DMSO alone as the negative control. After incubation for an additional 3 h at 30° C., the cells were collected for Western blot analysis of proteins.

I84V HIV protease = molecular target: T3, I84V HIV protease (Human immunodeficiency virus type 1 group M subtype B, UniProt P12497, I572V); experiment: E. coli-based assay system: β-galactosidase activity, cells co-expressing TF-PR^I84V and β-Gal^PR; type: cell-based, HIV-1
T3 construct: used to replace the wild-type HIV protease domain in the two-cistron system to construct the plasmid pTF-PR^I84V; Met-Gly (my reading of primer TF-F) + native transframe region (56 aa directly upstream of the protease in Gag-Pol) (N); Lys-Glu-Glu (my translation of primer PR-R: Shine-Dalgarno in frame before the stop codon) (C); expressed in transfected cells; host or cells: E. coli bearing plasmid pTF-PR^I84V
Experimental: as §1

wild-type HIV protease = wild-type HIV protease (Human immunodeficiency virus type 1 group M subtype B, UniProt P12497); experiment: cell-based
Experimental: as §2
Cell-Based β-galactosidase Activity Assay. Cell-based β-galactosidase activity assays were performed basically as described in Example 4. E. coli cells bearing each of the expression plasmids were grown as described, except that after incubation at 37° C. for 2 h to an OD630 of 0.6, the cells were transferred in triplicate sets to the wells of 96-well microplates. The cells were subjected to simultaneous induction for recombinant protein expression as well as drug treatment with HIV protease inhibitors at the indicated concentrations in 2% DMSO. For the screening of the compound library generated by the amide-forming reaction (see Example 5), DMF was used instead of DMSO. After incubation for an additional 3 h at 30° C., the cells were made permeable for the entry of the β-galactosidase substrate, (ortho-nitrophenyl-β-D-galactopyranoside (ONPG)), by diluting the cells in assay buffer (10 mM NaP, pH 7.3, 10 mM NaCl, 1 mM MgSO4, 5 mM β-mercaptoethanol) that contained 50 μg of polymyxin B sulfate/ml and 2%Triton X-100 (Schupp et al., BioTechniques 19:18-20 (1995)). The cells were then incubated for 5 min at room temperature in 96-well microplates. After the OD630 of the cells was determined by using an Ultramark microplate imaging system (Bio-Rad, Hercules, Calif.), ONPG was added at a final concentration of 200 μM to start the enzymatic reactions at 37° C. Changes in the OD415, indicating the production of ortho-nitrophenol, were continuously monitored with the Ultramark microplate imaging system. The linear portion of the progression curve was used to determine the initial velocity with MATLAB (The MathWorks Inc., Natick, Mass.). The difference in OD415 (ΔA) was converted to the increase in product concentration (ΔC) by using the equation ΔA=ε(ΔC)(L), where L is the light path of 0.4 cm and the extinction coefficient (ε) of ortho-nitrophenol was 3,500 M^−1 cm^−1 under the assay conditions. The β-galactosidase activity was determined as the number of micromoles of ortho-nitrophenol produced per minute at 37° C. The β-galactosidase activity was then normalized against the amount of total cellular proteins, which was estimated by assuming that an OD630 unit corresponds to 1.4×10^9 cells and that every 10^9 cells yield approximately 150 μg of proteins (Pardee et al., J. Mol. Biol. 1:165-68 (1959)).
ββ-galactosidase activity assays were performed as described in Example 8. After drug treatment for 3 h, the cells were processed for detection of β-galactosidase activity of whole cells in 96-well microplates as described. Cells coexpressing TF-PR^WT and β-GalPR were treated with HIV protease inhibitors at the concentrations between 0 and 400 μM. β-galactosidase activities (micromoles per minute per milligram of total protein) in the treated E. coli cells were determined.
The β-galactosidase activity detected in E. coli coexpressing TF-PR^WT and β-Gal^PR in the absence of HIV protease inhibitors was referred to as 0% inhibition.

Wild-type HIV = conditions: concentration inhibiting 90% of mammalian cell death induced by HIV infection; Patick et al.; read-out: EC90 (μM) from standard antiviral assay with: Wild-type HIV; cited from earlier work
D30N HIV strain = conditions: concentration inhibiting 90% of mammalian cell death induced by HIV infection; Patick et al.; read-out: EC90 (μM) from standard antiviral assay with: D30N HIV strain; cited from earlier work

Compound | IC50 (D30N HIV protease) | IC50 [1] | IC50 (wild-type HIV protease) | EC90 (Wild-type HIV) | EC90 (D30N HIV strain) | also measured
CC(C)CN(C[C@@H](O)[C@H](Cc1ccccc1)NC(=O)O[C@H]1CCOC1)S(=O)(=O)c1ccc(N)cc1 [APV, amprenavir] | 35900 ± 17700 nM | 1600 to 8000 nM | 53400 ± 17400 nM | – | – | IC50 (I84V HIV protease): 280000 ± 39000 nM
CC(C)(C)NC(=O)[C@@H]1CN(Cc2cccnc2)CCN1C[C@@H](O)C[C@@H](Cc1ccccc1)C(=O)N[C@H]1c2ccccc2C[C@H]1O [IDV, indinavir] | – | – | – | 0.06 µM | 0.01 µM | –
Cc1c(O)cccc1C(=O)N[C@@H](CSc1ccccc1)[C@H](O)CN1C[C@H]2CCCC[C@H]2C[C@H]1C(=O)NC(C)(C)C [NFV, nelfinavir] | > 400000 nM | 1600 to 8000 nM | 48400 ± 4800 nM | 0.03 µM | 0.18 µM | inhibition at 400 µM (wild-type HIV protease; read-out: % inhibition against the wild-type HIV protease): 75%
CC(C)c1nc(CN(C)C(=O)N[C@H](C(=O)N[C@@H](Cc2ccccc2)C[C@H](O)[C@H](Cc2ccccc2)NC(=O)OCc2cncs2)C(C)C)cs1 [RTV, ritonavir] | – | – | – | 0.05 µM | 0.01 µM | –
CC(C)(C)NC(=O)[C@@H]1C[C@@H]2CCCC[C@@H]2CN1C[C@@H](O)[C@H](Cc1ccccc1)NC(=O)[C@H](CC(N)=O)NC(=O)c1ccc2ccccc2n1 [SQV, saquinavir] | – | – | – | 0.03 µM | 0.01 µM | –
pepstatin A | – | – | – | – | – | inhibition of β-galactosidase activity (so in the source) (wild-type HIV protease; E. coli cells coexpressing TF-PR^WT and β-Gal^PR): did not inhibit; cell permeability (wild-type HIV protease; E. coli cells, inferred from lack of inhibition): low cell permeability; inhibitory effects in the assay procedures described herein (wild-type HIV protease; up to 5 mM): failed to exert any inhibitory effects
